Consider 28 compounds from patent US9139587B2, “N1-pyrazolospiroketone acetyl-CoA carboxylase inhibitors” (Pfizer Inc., priority 2009, dated 2015).

Assay [1] concerns the target T1, recombinant human ACC1 (rhACC1) (Homo sapiens, UniProt Q13085, DEL44-44).
T1 construct: recombinant baculovirus containing full length human ACC1 cDNA; made in house; host or cells: SF9 insect cells (baculovirus)
Put plainly: recombinant hACC1 Transcreener assay (direct inhibition of ACC1 activity). The format is biochemical. The settings on record: Transcreener ADP detection FP assay, 50 μM ATP, 30 μM acetyl-CoA, 120 min at 25° C. The procedure: For example direct inhibition of ACC activity, for the compound of Formula (1) was determined using preparations of recombinant human ACC1 (rhACC1) and recombinant human ACC2 (rhACC2). Representative sequences of the recombinant human ACC1 and ACC2 that can be used in the assay are provided in FIG. 1 (SEQ ID NO. 1) and FIG. 2 (SEQ. ID NO. 2), respectively. Preparation of rhACC1. Two liters of SF9 cells, infected with recombinant baculovirus containing full length human ACC1 cDNA, were suspended in ice-cold lysis buffer (25 mM Tris, pH 7.5; 150 mM NaCl; 10% glycerol; 5 mM imidazole (EMD Bioscience; Gibbstown, N.J.); 2 mM TCEP (BioVectra; Charlottetown, Canada); Benzonase nuclease (10000 U/100 g cell paste; Novagen; Madison, Wis.); EDTA-free protease inhibitor cocktail (1 tab/50 mL; Roche Diagnostics; Mannheim, Germany). Cells were lysed by 3 cycles of freeze-thaw and centrifuged at 40,000×g for 40 minutes (4° C.). Supernatant was directly loaded onto a HisTrap FF crude column (GE Healthcare; Piscataway, N.J.) and eluted with an imidazole gradient up to 0.5 M over 20 column volumes (CV). ACC1-containing fractions were pooled and diluted 1:5 with 25 mM Tris, pH 7.5, 2 mM TCEP, 10% glycerol and direct loaded onto a CaptoQ (GE Healthcare) column and eluted with an NaCl gradient up to 1 M over 20 CV's. Phosphate groups were removed from purified ACC1 by incubation with lambda phosphatase (100 U/10 μM target protein; New England Biolabs; Beverly, Mass.) for 14 hours at 4° C.; okadaic acid was added (1 μM final concentration; Roche Diagnostics) to inhibit the phosphatase. Purified ACC1 was exchanged into 25 mM Tris, pH 7.5, 2 mM TCEP, 10% glycerol, 0.5 M NaCl by 6 hour dialysis at 4° C. Aliquots were prepared and frozen at −80° C. […] The final conditions for the assay were 50 mM HEPES, pH 7.2, 10 mM MgCl2, 7.5 mM tripotassium citrate, 2 mM DTT, 0.1 mg/mL BSA, 30 μM acetyl-CoA, 50 μM ATP, and 10 mM KHCO3 Typically, a 10 μl reaction was run for 120 min at 25° C., and 10 μl of Transcreener stop and detect buffer was added and the combination incubated at room temp for an additional 1 hour. The data was acquired on a Envision Fluorescence reader (Perkinelmer) using a 620 excitation Cy5 FP general dual mirror, 620 excitation Cy5 FP filter, 688 emission (S) and a 688 (P) emission filter.

Assay [2] has as its target T2, recombinant human ACC2 (rhACC2) (Homo sapiens, UniProt O00763, V2141I).
T2 construct: a full length Cytomax clone of ACC2 was purchased from Cambridge Bioscience Limited; made in house; host or cells: CHO cells (tetracycline-induced, pcDNA5 FRT TO-TOPO)
Put plainly: recombinant hACC2 Transcreener assay (direct inhibition of ACC2 activity). The assay is classed as biochemical. The settings on record: Transcreener ADP detection FP assay, 50 μM ATP, 30 μM acetyl-CoA, 50 min at 25° C. As for the experimental part:
For example direct inhibition of ACC activity, for the compound of Formula (1) was determined using preparations of recombinant human ACC1 (rhACC1) and recombinant human ACC2 (rhACC2). Representative sequences of the recombinant human ACC1 and ACC2 that can be used in the assay are provided in FIG. 1 (SEQ ID NO. 1) and FIG. 2 (SEQ. ID NO. 2), respectively.
[3] Preparation of rhACC2. Human ACC2 inhibition was measured using purified recombinant human ACC2 (hrACC2). Briefly, a full length Cytomax clone of ACC2 was purchased from Cambridge Bioscience Limited and was sequenced and subcloned into PcDNA5 FRT TO-TOPO (Invitrogen, Carlsbad, Calif.). The ACC2 was expressed in CHO cells by tetracycline induction and harvested in 5 liters of DMEM/F12 with glutamine, biotin, hygromycin and blasticidin with 1 μg/mL tetracycline (Invitrogen, Carlsbad, Calif.). The conditioned medium containing ACC2 was then applied to a Softlink Soft Release Avidin column (Promega, Madison, Wis.) and eluted with 5 mM biotin. 4 mgs of ACC2 were eluted at a concentration of 0.05 mg/mL (determined by A280) with an estimated purity of 95% ([…]). The purified ACC2 was dialyzed in 50 mM Tris, 200 mM NaCl, 4 mM DTT, 2 mM EDTA, and 5% glycerol. The pooled protein was frozen and stored at −80° C., with no loss of activity upon thawing. For measurement of ACC2 activity and assessment of ACC2 inhibition, test compounds were dissolved in DMSO and added to the rhACC2 enzyme as a 5× stock with a final DMSO concentration of 1%.
[4] Measurement of human ACC2 inhibition. hACC2 was assayed in a Costar #3676 (Costar, Cambridge, Mass.) 384-well plate using the Transcreener ADP detection FP assay kit (Bellbrook Labs, Madison, Wisconsin) using the manufacturer's recommended conditions for a 50 uM ATP reaction. The final conditions for the assay were 50 mM HEPES, pH 7.2, 5 mM MgCl2, 5 mM tripotassium citrate, 2 mM DTT, 0.1 mg/mL BSA, 30 μM acetyl-CoA, 50 μM ATP, and 8 mM KHCO3 Typically, a 10 μl reaction was run for 50 min at 25° C., and 10 μl of Transcreener stop and detect buffer was added and the combination incubated at room temp for an additional 1 hour. The data was acquired on an Envision Fluorescence reader (Perkinelmer) using a 620 excitation Cy5 FP general dual mirror, 620 excitation Cy5 FP filter, 688 emission (S) and a 688 (P) emission filter.

T2 sequence (O00763 whole entry V2141I): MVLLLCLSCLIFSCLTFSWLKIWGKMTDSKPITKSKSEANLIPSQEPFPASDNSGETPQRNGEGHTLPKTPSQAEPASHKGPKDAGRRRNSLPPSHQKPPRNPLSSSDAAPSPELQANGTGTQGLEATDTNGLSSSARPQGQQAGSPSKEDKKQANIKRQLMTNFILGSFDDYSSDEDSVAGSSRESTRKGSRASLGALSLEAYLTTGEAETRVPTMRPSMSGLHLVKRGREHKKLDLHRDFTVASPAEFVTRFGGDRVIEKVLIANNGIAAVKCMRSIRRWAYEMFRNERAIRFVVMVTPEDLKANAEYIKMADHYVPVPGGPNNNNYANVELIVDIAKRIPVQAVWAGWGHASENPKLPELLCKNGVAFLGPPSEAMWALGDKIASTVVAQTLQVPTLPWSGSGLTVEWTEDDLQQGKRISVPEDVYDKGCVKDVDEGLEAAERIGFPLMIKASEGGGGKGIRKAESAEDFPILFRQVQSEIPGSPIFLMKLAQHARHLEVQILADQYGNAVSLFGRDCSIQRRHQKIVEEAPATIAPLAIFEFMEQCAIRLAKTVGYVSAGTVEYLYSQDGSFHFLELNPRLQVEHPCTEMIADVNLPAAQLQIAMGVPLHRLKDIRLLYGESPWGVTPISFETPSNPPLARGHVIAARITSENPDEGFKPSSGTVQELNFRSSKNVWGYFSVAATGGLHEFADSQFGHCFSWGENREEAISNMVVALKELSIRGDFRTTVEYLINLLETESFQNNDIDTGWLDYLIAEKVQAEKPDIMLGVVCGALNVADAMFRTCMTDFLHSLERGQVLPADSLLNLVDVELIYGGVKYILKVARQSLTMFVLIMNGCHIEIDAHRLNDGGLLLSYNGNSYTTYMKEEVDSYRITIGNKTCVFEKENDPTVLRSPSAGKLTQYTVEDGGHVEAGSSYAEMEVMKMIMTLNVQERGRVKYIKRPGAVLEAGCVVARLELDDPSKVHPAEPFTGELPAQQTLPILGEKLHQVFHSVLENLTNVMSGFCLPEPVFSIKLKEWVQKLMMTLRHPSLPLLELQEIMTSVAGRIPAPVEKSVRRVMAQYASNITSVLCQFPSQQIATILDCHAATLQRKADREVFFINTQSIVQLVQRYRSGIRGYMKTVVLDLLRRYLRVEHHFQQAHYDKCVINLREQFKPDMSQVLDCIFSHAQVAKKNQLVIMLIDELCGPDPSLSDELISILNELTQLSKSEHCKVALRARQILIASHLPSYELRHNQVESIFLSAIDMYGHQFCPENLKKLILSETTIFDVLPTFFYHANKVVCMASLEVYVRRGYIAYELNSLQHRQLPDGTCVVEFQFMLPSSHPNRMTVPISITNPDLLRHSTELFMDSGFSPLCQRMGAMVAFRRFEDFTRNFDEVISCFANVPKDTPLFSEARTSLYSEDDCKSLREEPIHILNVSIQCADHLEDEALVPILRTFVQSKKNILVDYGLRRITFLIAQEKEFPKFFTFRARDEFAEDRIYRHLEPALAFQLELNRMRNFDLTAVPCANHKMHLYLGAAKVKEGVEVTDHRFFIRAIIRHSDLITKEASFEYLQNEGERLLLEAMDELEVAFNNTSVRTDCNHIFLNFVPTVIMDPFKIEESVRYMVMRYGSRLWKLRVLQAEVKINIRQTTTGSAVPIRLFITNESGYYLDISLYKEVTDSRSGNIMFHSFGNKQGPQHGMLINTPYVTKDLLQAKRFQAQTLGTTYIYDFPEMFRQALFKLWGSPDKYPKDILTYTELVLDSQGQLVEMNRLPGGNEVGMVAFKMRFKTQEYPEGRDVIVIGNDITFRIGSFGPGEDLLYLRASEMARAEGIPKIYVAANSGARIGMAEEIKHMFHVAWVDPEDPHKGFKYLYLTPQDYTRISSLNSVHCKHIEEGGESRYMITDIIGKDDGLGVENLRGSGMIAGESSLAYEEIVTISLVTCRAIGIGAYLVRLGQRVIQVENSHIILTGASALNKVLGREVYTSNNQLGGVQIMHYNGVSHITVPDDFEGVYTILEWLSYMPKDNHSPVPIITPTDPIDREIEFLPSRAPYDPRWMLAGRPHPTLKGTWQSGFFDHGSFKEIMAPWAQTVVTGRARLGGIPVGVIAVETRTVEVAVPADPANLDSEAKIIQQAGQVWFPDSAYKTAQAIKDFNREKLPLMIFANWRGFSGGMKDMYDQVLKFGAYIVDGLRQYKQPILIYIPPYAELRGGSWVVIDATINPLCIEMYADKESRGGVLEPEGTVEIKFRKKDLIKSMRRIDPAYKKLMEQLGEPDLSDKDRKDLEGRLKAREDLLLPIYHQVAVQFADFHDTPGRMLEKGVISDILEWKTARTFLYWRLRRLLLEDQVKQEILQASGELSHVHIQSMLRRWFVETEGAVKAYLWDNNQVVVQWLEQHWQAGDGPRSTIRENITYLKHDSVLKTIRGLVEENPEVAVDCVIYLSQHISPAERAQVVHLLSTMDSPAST

As for `CC(C)n1ncc2c1C(=O)CC1(CCN(C(=O)c3cccc(-c4cc[nH]n4)c3)CC1)C2` [Example 11A-15], the IC50 is 112 nM in assay [1] and 43.8 nM in assay [2].

Turning to `COCC(C)n1ncc2c1C(=O)CC1(CCN(C(=O)c3ccc(Cl)c(C)c3)CC1)C2` (centres unmarked) [Example 2A-3], the IC50 in assay [1] amounted to 2720 nM; in assay [2] it was 680 nM.

On to `CC(C)(C)n1ncc2c1C(=O)CC1(CCN(C(=O)c3cc4cccn4cn3)CC1)C2` [Example 11A-69], for which the IC50 in assay [1] is 580 nM; in assay [2], 288 nM.

`CC(C)(C)n1ncc2c1C(=O)CC1(CCN(C(=O)c3cnc4[nH]ncc4c3)CC1)C2` [Example 2A-41]: the IC50 in assay [1] was 176 nM; in assay [2], 90 nM.

Take `CC(C)n1ncc2c1C(=O)C(C)C1(CCN(C(=O)c3ccc4[nH]ncc4c3)CC1)C2` (single isomer, unassigned; (-)) [Example 5A-2, (−)-1′-(1H-indazole-5-carbonyl)-1-isopropyl-6-methyl-4,6-dihydrospiro[indazole-5,4′-piperidin]-7(1H)-one]: the values for the IC50 in assay [1] and in assay [2] were 175 nM and 80.7 nM, respectively.

As to `CC(C)n1ncc2c1C(=O)CC1(CCN(C(=O)c3ccnc(-c4cc[nH]n4)c3)CC1)C2` [Example 11A-18], the IC50 was 235 nM in assay [1] and 56.3 nM in assay [2].

As for `CC(C)n1ncc2c1C(=O)CC1(CCN(C(=O)c3ccc(N4CCOCC4)cn3)CC1)C2` [Example 11A-42], the results for the IC50 in assay [1] and in assay [2] were 11700 nM and 2850 nM, respectively.

Consider `CC(C)n1ncc2c1C(=O)CC1(CCN(C(=O)c3ccc4cn[nH]c4c3)CC1)C2` [Example 2A-68], for which the IC50 was determined as 68.4 nM in assay [1] and 51.2 nM in assay [2].

As to `CC(C)n1ncc2c1C(=O)CC1(CCN(C(=O)c3c[nH]c4ccnn4c3=O)CC1)C2` [Example 11A-35], the IC50 in assay [1] stood at 3340 nM; in assay [2], 2130 nM.

Turning to `CC(C)n1ncc2c1C(=O)CC1(CCN(C(=O)c3cnc4[nH]ncc4c3)CC1)C2` [Example 2A-1, 1-Isopropyl-1′-(1H-pyrazolo[3,4-b]pyridine-5-carbonyl)-4,6-dihydrospiro[indazole-5,4′-piperidin]-7(1H)-one], the IC50 in assay [1] turned out to be 282 nM; in assay [2], 69.7 nM.

Regarding `CC(C)n1ncc2c1C(=O)CC1(CCN(C(=O)c3cc(Cl)c4[nH]ncc4c3)CC1)C2` [Example 2A-16], the values for the IC50 in assay [1] and in assay [2] were 46.9 nM and 13.6 nM, respectively.

With `Cc1cc(C(=O)N2CCC3(CC2)CC(=O)c2c(cnn2C(C)(C)C)C3)ccc1Cl` [Example 1A-2], the concentration for half-maximal inhibition (IC50) in assay [1] was determined as 444 nM; in assay [2] it was 62.3 nM.

For the compound `Cn1c(=O)[nH]c2ccc(C(=O)N3CCC4(CC3)CC(=O)c3c(cnn3C(C)(C)C)C4)cc21` [Example 2A-49], the IC50 in assay [1] turned out to be 92.1 nM; in assay [2], 71.6 nM.

Consider `CC(C)(C)n1ncc2c1C(=O)CC1(CCN(C(=O)c3ccc4c(c3)NC(=O)CC4)CC1)C2` [Example 2A-34], for which the IC50 is 72.4 nM in assay [1] and 32.1 nM in assay [2].

For `CC(C)n1ncc2c1C(=O)CC1(CCN(C(=O)c3ccc4[nH]ncc4c3)CC1)C2` [Example 10A-1, 1′-(1H-indazole-5-carbonyl)-1-isopropyl-4,6-dihydrospiro[indazole-5,4′-piperidin]-7(1H)-one], the results for the IC50 in assay [1] and in assay [2] were 43.8 nM and 22.3 nM, respectively.

`Cc1cc(C(=O)N2CCC3(CC2)CC(=O)c2c(cnn2C(C)C)C3)ccc1Cl` [Example 1A-1, 1-isopropyl-1′-(4-chloro-3-methylbenzoyl)-4,6-dihydrospiro[indazole-5,4′-piperidin]-7(1H)-one]: the IC50 is 267 nM in assay [1] and 68 nM in assay [2].

In the case of `CC(C)(C)n1ncc2c1C(=O)CC1(CCN(C(=O)c3cnc4[nH]ccc4c3)CC1)C2` [Example 2A-23], the IC50 amounted to 32.3 nM in assay [1] and 23.3 nM in assay [2].

Consider `CC(C)n1ncc2c1C(=O)CC1(CCN(C(=O)c3ccc4c(=O)[nH]ccc4c3)CC1)C2` [Example 2A-14], for which the IC50 was 172 nM in assay [1] and 27 nM in assay [2].

In the case of `CC(C)(C)n1nc(C#N)c2c1C(=O)CC1(CCN(C(=O)c3ccc4[nH]ncc4c3)CC1)C2` [Example 2A-78], the IC50 in assay [1] was determined as 3840 nM; in assay [2] it was 1270 nM.

Regarding `CC(C)n1ncc2c1C(=O)CC1(CCN(C(=O)c3ccc4cnccc4c3O)CC1)C2` [Example 2A-72], the IC50 in assay [1] was found to be 599 nM; in assay [2] it was 290 nM.

As for `CC(C)(C)n1ncc2c1C(=O)CC1(CCN(C(=O)c3cnc4cn[nH]c4c3)CC1)C2` [Example 11A-58], the IC50 in assay [1] worked out at 131 nM; in assay [2], 73.6 nM.

With `Cc1cc(C(=O)N2CCC3(CC2)CC(=O)c2c(cnn2Cc2ccccc2)C3)ccc1Cl` [Example 1A-4], the IC50 in assay [1] came to 2980 nM; in assay [2], 719 nM.

For the compound `CC(C)n1ncc2c1C(=O)CC1(CCN(C(=O)c3ccc4[nH]nc(C#N)c4c3)CC1)C2` [Example 11A-9], the IC50 in assay [1] stood at 34.4 nM; in assay [2], 19.7 nM.

For the compound `CC(C)n1ncc2c1C(=O)CC1(CCN(C(=O)c3ccc(-n4ccnc4)cn3)CC1)C2` [Example 11A-63], the IC50 in assay [1] was 8720 nM; in assay [2], 2550 nM.

`CC(=O)Nc1cccc(C(=O)N2CCC3(CC2)CC(=O)c2c(cnn2C(C)C)C3)n1` [Example 2A-62]: the results for the 50% inhibitory concentration (IC50) in assay [1] and in assay [2] were 4210 nM and 1280 nM, respectively.

Turning to `Cc1nc2ccc(C(=O)N3CCC4(CC3)CC(=O)c3c(cnn3C(C)C)C4)cc2[nH]1` [Example 3A-1, 1-isopropyl-1′-(2-methyl-1H-benzo[d]imidazole-5-carbonyl)-4,6-dihydrospiro[indazole-5,4′-piperidin]-7(1H)-one], the IC50 in assay [1] came to 96.1 nM; in assay [2], 48.6 nM.

For the compound `CC(C)n1ncc2c1C(=O)CC1(CCN(C(=O)c3ccc4c(c3)CC(=O)N4)CC1)C2` [Example 2A-27], the IC50 worked out at 308 nM in assay [1] and 91.8 nM in assay [2].

In the case of `Cc1nc2c(Cl)cc(C(=O)N3CCC4(CC3)CC(=O)c3c(cnn3C(C)(C)C)C4)cc2[nH]1` [Example 2A-53], the half-inhibitory concentration (IC50) in assay [1] is 39.6 nM; in assay [2] it was 17.2 nM.
